Where two headings read alike, the source gives them in different places.
Tests used:
D2 receptor [1] = biological target: D2 receptor (Rattus norvegicus, UniProt P61169); experiment: biochemical; type: binding
5-HT1A receptor [2] = biological target: T1, 5-HT1A receptor (Rattus norvegicus, UniProt P19327); experiment: biochemical; type: binding
T1 sequence (P19327 1-422): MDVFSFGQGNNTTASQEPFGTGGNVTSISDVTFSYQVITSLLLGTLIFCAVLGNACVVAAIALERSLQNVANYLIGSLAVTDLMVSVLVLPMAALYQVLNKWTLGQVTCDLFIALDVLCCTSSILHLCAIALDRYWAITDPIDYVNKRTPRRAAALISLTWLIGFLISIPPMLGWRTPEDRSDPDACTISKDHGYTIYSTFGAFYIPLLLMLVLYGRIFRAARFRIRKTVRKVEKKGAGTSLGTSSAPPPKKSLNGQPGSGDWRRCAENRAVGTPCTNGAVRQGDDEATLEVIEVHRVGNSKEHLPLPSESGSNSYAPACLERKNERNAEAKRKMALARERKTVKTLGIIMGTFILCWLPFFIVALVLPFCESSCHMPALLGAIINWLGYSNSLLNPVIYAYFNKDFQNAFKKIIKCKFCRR

5-HT2A receptor [3] = biological target: 5-HT2A receptor (Rattus norvegicus, UniProt P14842); experiment: biochemical; type: binding
5-HT6 receptor [4] = biological target: T2, 5-HT6 receptor (Homo sapiens, UniProt P50406); experiment: biochemical; type: binding
H3 receptor = H3 receptor (Rattus norvegicus, UniProt Q9QYN8); type: binding
5-HT2A receptor [5] = biological target: 5-HT2A receptor (Homo sapiens, UniProt P28223); experiment: 5-HT2A functional activity; type: cell-based
mice [6] = experiment: Apomorphine-induced climbing; type: in vivo; settings: po
mice [7] = experiment: Catalepsy test; type: in vivo; settings: po
mice [8] = experiment: Weight gain after 28 days of administration; type: in vivo; settings: oral
α1 receptor = settings: read-out: Receptor affinity Ki ± SEM, α1; three experiments, mean ± SEM
rats [9] = settings: oral
D2 receptor [10] = biological target: D2 receptor (Homo sapiens, UniProt P14416); experiment: cell-based
5-HT1A receptor [11] = biological target: T3, 5-HT1A receptor (Homo sapiens, UniProt P08908); experiment: cell-based
T3 sequence (P08908 1-422): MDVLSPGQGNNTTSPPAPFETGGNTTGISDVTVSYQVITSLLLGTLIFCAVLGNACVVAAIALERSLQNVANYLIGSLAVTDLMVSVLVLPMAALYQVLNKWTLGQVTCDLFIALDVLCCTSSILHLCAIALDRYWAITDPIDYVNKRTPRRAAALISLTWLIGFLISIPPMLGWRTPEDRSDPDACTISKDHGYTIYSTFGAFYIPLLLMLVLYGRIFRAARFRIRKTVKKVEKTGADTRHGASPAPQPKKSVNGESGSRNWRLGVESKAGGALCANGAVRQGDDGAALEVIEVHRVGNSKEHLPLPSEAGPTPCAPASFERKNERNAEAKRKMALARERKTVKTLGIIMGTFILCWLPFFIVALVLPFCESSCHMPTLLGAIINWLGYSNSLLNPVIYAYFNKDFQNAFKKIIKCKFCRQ

5-HT6 receptor [12] = biological target: T2, 5-HT6 receptor; experiment: cell-based
5-HT2C receptor = biological target: T4, 5-HT2C receptor (Rattus norvegicus, UniProt P08909); experiment: biochemical
T4 sequence (P08909 33-460): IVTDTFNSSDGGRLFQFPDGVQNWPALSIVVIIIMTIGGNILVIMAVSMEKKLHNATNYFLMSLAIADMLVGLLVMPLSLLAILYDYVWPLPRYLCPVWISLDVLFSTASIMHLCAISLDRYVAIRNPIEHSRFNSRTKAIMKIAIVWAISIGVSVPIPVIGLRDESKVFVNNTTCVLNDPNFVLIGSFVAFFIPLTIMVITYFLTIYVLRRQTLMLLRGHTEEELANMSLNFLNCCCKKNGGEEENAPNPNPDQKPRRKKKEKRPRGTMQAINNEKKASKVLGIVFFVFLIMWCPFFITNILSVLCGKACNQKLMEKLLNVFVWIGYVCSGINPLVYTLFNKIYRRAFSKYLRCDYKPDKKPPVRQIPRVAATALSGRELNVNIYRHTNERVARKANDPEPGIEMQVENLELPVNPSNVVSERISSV

H1 receptor = H1 receptor (Cavia porcellus, UniProt P31389); experiment: biochemical
mice [13] = experiment: MK-801-induced hyperactivity; settings: po
hH3R = hH3R (Homo sapiens, UniProt Q9Y5N1); experiment: H3 functional activity
mice [14] = experiment: Acute toxicity; settings: oral, 24 h
rats [15] = experiment: Conditioned avoidance response; type: in vivo; settings: po
mice [16] = experiment: Serum prolactin after 28 days of administration; type: in vivo; settings: oral

Sequence of 5-HT2A receptor (Rattus norvegicus, UniProt P14842) (P14842 whole entry): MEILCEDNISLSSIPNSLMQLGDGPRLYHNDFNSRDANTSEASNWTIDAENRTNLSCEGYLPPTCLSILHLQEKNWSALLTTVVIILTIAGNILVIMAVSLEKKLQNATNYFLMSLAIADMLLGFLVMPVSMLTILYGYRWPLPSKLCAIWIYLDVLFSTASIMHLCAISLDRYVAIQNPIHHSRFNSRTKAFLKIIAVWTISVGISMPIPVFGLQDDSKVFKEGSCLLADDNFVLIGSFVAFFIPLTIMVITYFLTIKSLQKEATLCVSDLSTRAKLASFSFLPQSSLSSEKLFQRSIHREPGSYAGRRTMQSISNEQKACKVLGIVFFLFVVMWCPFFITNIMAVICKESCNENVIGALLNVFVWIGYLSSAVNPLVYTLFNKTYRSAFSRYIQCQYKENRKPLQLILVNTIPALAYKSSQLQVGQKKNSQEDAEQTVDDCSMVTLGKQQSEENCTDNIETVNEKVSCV
Sequence of D2 receptor (Rattus norvegicus, UniProt P61169) (P61169 whole entry): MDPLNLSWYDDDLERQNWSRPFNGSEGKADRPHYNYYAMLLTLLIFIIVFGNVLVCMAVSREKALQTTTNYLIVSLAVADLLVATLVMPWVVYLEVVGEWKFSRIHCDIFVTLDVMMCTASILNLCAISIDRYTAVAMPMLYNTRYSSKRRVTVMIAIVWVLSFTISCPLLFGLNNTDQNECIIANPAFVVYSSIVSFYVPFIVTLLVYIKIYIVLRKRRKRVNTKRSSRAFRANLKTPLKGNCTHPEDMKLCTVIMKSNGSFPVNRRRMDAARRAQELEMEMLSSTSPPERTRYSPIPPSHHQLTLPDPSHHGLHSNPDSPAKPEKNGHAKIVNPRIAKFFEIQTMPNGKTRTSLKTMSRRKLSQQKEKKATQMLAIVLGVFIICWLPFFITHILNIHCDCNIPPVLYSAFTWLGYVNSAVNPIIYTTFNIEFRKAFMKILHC
T2 sequence (P50406 whole entry): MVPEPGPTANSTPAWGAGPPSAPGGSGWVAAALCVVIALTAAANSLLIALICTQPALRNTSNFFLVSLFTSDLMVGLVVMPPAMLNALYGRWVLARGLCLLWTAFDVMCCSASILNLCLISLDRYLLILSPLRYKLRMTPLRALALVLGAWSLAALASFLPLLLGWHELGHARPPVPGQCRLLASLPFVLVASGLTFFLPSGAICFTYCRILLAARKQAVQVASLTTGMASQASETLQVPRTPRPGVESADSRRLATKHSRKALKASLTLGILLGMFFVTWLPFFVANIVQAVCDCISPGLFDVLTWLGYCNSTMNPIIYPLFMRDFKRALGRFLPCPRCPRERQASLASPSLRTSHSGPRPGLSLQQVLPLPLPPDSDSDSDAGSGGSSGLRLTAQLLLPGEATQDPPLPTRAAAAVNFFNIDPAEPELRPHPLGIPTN
Sequence of H3 receptor (Q9QYN8 whole entry): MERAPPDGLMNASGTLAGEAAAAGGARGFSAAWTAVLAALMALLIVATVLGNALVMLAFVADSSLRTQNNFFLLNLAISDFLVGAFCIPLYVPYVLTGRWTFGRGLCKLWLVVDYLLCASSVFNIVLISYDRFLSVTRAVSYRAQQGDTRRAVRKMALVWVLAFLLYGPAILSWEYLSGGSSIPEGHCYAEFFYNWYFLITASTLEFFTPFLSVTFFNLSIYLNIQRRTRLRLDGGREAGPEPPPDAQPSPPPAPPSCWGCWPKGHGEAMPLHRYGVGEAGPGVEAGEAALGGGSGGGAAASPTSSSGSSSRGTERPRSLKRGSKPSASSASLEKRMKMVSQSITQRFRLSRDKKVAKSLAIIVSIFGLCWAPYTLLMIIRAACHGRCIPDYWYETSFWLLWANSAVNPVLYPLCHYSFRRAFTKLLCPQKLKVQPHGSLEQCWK
Sequence of hH3R (Q9Y5N1 whole entry): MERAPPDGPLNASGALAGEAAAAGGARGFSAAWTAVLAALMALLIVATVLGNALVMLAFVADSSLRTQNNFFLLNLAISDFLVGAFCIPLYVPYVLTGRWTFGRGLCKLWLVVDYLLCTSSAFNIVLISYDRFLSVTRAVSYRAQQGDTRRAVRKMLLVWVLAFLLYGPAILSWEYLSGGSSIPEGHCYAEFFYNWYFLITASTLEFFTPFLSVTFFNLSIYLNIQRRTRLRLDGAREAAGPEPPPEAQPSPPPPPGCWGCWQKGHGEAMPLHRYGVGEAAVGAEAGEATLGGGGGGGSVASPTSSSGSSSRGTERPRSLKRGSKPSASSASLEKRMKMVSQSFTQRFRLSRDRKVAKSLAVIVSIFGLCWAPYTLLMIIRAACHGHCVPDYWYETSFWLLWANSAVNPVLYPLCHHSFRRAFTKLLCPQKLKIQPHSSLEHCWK
Sequence of H1 receptor (P31389 whole entry): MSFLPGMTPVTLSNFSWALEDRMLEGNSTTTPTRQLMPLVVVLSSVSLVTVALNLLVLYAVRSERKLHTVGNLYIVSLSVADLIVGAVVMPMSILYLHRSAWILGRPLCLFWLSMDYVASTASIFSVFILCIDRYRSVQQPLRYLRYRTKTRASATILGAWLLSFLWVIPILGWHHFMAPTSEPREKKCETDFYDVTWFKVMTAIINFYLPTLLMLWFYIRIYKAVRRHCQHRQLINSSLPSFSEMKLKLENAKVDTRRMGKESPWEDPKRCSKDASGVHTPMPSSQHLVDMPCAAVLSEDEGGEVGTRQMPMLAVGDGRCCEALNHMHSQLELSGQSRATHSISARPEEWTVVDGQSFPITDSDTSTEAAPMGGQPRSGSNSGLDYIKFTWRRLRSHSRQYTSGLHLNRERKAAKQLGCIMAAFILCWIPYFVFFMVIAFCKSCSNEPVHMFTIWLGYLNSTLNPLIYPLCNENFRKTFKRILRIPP
Sequence of D2 receptor (Homo sapiens, UniProt P14416) (P14416 whole entry): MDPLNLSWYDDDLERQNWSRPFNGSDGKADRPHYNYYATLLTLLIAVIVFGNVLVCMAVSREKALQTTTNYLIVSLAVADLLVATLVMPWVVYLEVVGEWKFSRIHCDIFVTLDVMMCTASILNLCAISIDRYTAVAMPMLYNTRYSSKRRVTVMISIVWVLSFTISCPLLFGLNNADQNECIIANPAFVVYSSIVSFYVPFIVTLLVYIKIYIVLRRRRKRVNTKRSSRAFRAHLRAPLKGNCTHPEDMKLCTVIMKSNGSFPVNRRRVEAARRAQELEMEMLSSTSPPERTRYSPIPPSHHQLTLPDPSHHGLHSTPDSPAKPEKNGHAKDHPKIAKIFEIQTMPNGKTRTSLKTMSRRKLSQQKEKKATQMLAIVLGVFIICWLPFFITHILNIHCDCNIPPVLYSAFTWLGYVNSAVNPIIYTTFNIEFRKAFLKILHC
Sequence of 5-HT2A receptor (Homo sapiens, UniProt P28223) (P28223 whole entry): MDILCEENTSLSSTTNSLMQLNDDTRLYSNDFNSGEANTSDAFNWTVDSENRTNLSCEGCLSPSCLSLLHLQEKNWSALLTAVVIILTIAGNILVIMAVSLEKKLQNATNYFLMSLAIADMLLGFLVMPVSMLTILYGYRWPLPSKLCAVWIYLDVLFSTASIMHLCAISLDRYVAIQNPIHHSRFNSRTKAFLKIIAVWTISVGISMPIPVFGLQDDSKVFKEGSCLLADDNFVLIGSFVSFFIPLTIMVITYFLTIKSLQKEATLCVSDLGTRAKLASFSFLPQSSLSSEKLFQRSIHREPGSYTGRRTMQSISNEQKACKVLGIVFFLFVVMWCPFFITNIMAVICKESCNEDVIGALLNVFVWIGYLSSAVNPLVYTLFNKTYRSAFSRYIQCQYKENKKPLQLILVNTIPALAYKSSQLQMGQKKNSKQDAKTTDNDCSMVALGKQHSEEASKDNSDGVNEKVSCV

| SMILES | Ki (D2 receptor [1]) | Ki (5-HT1A receptor [2]) | Ki (5-HT2A receptor [3]) | Ki (5-HT6 receptor [4]) | Ki (H3 receptor) | also measured |
| --- | --- | --- | --- | --- | --- | --- |
| Fc1cc(CN2CCCC2)ccc1OCCCN1CCN(c2cccc3sccc23)CC1 [Compound 3c] | 0.1 ± 0.007 µM | 0.155 ± 0.0152 µM | 0.259 ± 0.014 µM | 0.383 ± 0.0346 µM | 0.0929 ± 0.0036 µM | – |
| Fc1cc(OCCCN2CCN(c3cccc4sccc34)CC2)ccc1CN1CCCC1 [Compound 3d] | 0.0987 ± 0.0068 µM | 0.144 ± 0.0104 µM | 0.262 ± 0.0175 µM | 0.354 ± 0.0658 µM | 0.0544 ± 0.002 µM | – |
| Clc1cc(OCCCN2CCN(c3cccc4sccc34)CC2)ccc1CN1CCCC1 [Compound 3f] | 0.12 ± 0.015 µM | 0.185 ± 0.0163 µM | 0.268 ± 0.0202 µM | 0.376 ± 0.0583 µM | 0.0753 ± 0.0085 µM | – |
| COc1cc(CN2CCCC2)ccc1OCCCN1CCN(c2cccc3sccc23)CC1 [Compound 3g] | 0.0995 ± 0.0084 µM | 0.149 ± 0.0117 µM | 0.129 ± 0.0151 µM | 0.462 ± 0.0557 µM | 0.0625 ± 0.005 µM | – |
| c1cc(N2CCN(CCCOc3ccc(CN4CCCC4)cc3)CC2)c2ccsc2c1 [Compound 3i] | 0.0911 ± 0.0045 µM | 0.135 ± 0.0105 µM | 0.186 ± 0.0201 µM | 0.384 ± 0.0513 µM | 0.053 ± 0.0063 µM | – |
| Cc1cc(CN2CCCCC2)ccc1OCCCN1CCN(c2cccc3sccc23)CC1 [Compound 3j] | 0.138 ± 0.0301 µM | 0.305 ± 0.0282 µM | 0.324 ± 0.0275 µM | 0.385 ± 0.051 µM | 0.085 ± 0.0098 µM | – |
| Fc1cc(CN2CCCCC2)ccc1OCCCN1CCN(c2cccc3sccc23)CC1 [Compound 3l] | 0.197 ± 0.0155 µM | 0.285 ± 0.0157 µM | 0.175 ± 0.0253 µM | 0.389 ± 0.0632 µM | 0.0884 ± 0.0101 µM | – |
| Fc1cc(OCCCN2CCN(c3cccc4sccc34)CC2)ccc1CN1CCCCC1 [Compound 3m] | 0.11 ± 0.0089 µM | 0.213 ± 0.0243 µM | 0.146 ± 0.0115 µM | 0.365 ± 0.0556 µM | 0.0815 ± 0.0065 µM | – |
| COc1cc(CN2CCCCC2)ccc1OCCCN1CCN(c2cccc3sccc23)CC1 [Compound 3p] | 0.144 ± 0.015 µM | 0.229 ± 0.0258 µM | 0.198 ± 0.0169 µM | 0.416 ± 0.0813 µM | – | – |
| c1cc(N2CCN(CCCOc3ccc(CN4CCOCC4)cc3)CC2)c2ccsc2c1 [Compound 3w] | 0.0175 ± 0.0019 µM | 0.0167 ± 0.0018 µM | – | 0.336 ± 0.0653 µM | 0.0121 ± 0.0015 µM | IC50 (5-HT2A receptor [5]): 0.142 µM; APO: apomorphine-induced climbing ED50 (mice [6]): 0.28 mg/kg; CAT: catalepsy ED50 (mice [7]): 27.5 mg/kg; weight gain (mice [8]): negligible weight gain; Ki (α1 receptor): 0.406 ± 0.0608 µM; novelty discrimination index (NDI) (rats [9]; 0.3 and 1.0 mg kg^−1): obvious increase; effect on total exploration time during the acquisition trial (rats [9]; 1.0–10.0 mg kg^−1): no obvious effect; difference in exploration times for novel and familiar objects, retention trial (rats [9]; low dose 0.1 mg kg^−1): no significant difference; IC50 (D2 receptor [10]): 0.0116 µM; IC50 (5-HT1A receptor [11]): 0.218 µM; IC50 (5-HT6 receptor [12]): 0.413 µM; Ki (5-HT2C receptor): 0.572 ± 0.0915 µM; Ki (H1 receptor): 0.82 ± 0.0487 µM; MK-801: MK-801-induced hyperactivity ED50 (mice [13]): 0.17 mg/kg; IC50 (hH3R): 0.232 µM |
| O=C(CCCN1CCC(O)(c2ccc(Cl)cc2)CC1)c1ccc(F)cc1 [Haloperidol, haloperidol] | – | – | – | – | – | APO: apomorphine-induced climbing ED50 (mice [6]): 0.09 mg/kg; CAT: catalepsy ED50 (mice [7]): 0.51 mg/kg; LD50 (mice [14]): 21.0 mg/kg; MK-801: MK-801-induced hyperactivity ED50 (mice [13]): 0.11 mg/kg |
| Cc1nc2n(c(=O)c1CCN1CCC(c3noc4cc(F)ccc34)CC1)CCCC2 [Risperidone, risperidone] | – | – | – | – | – | APO: apomorphine-induced climbing ED50 (mice [6]): 0.05 mg/kg; CAT: catalepsy ED50 (mice [7]): 0.51 mg/kg; CAT: catalepsy ED50 (mice [7]; listed as risperidone): 1.15 mg/kg; CAR: conditioned avoidance response ED50 (rats [15]): 0.65 mg/kg; CAR: conditioned avoidance response ED50 (rats [15]; listed as risperidone): 2.1 mg/kg; weight gain (mice [8]): significant weight gain; serum prolactin levels (mice [16]): significant increase; LD50 (mice [14]): 82.0 mg/kg; MK-801: MK-801-induced hyperactivity ED50 (mice [13]): 0.02 mg/kg |
| CCN(C)C(=O)Oc1cccc([C@H](C)N(C)C)c1 [rivastigmine, reference compound] | – | – | – | – | – | novelty discrimination index (NDI) (rats [9]; 0.1 and 0.3 mg kg^−1): obvious increase; exploration time for novel things vs vehicle, retention trial (rats [9]; 0.1 to 3.0 mg kg^−1): longer exploration |

— publication PMC9031908 (RSC Advances, 2021)
